Literature values, collected in patent publication US9029598B2 (Colgate-Palmolive Company, priority 2009, dated 2015).

Settings: room temperature, natural partial pressure (3.5×10^−4 atmosphere)

maximum concentration of carbon dioxide in water: 12 µM
SMILES: O=C=O [Carbon dioxide]
